Patent US20230138752A1, “PLASTICIZERS TO IMPROVE RELEASE PERFORMANCE OF AMORPHOUS SOLID DISPERSIONS” (Purdue Research Foundation, priority 2021, published 2023)
Entries after “also recorded” stand apart in the source; their conditions may differ. Where a name gives a salt, the structure may show the parent alone. Read-outs that look alike come from different tables or passages of the source.

Key:
[1] = API:plasticizer 8:1 miscibility and Tg depression by DSC; type: physicochemical
Protocol: API:plasticizer at a ratio 8:1 was prepared by rotary evaporation to evaluate miscibility and Tg depression produced by the plasticizer. 3 to 5 mg was accurately weighed in an aluminum pan with a hermetic lid with a pinhole. Since the Tg was evaluated after only 1 hour of vacuum drying to avoid crystallization, a second drying was done by employing an isothermal hold at 20° C. in the DSC with nitrogen flow for at least 20 minutes. Then, the sample was cooled to −60 and heated at 2° C./min to 210° C. with a modulation period +/−1° C. every 60 seconds.

[2] = literature; cited from earlier work
[3] = Surface normalized dissolution of ASD tablets (release, limit of congruency); type: physicochemical; conditions: for limit of congruency (LoC) of ATZ-PVPVA ASDs: ASD containing 5% w/w of the plasticizer; for normalized release rate of drug and polymer versus neat PVPVA / increase in LoC of ATZ versus binary ASD: ATZ-PVPVA ASD; for normalized release rate of drug and polymer versus neat PVPVA: ATZ 10 DL+GTA, ATZ 25DL+GTB; for limit of congruency (LoC) of LED-PVPVA ASDs: ASD containing 10% w/w of the plasticizer; for release of LED / total release of LED: LED 10% DL; for increase in LoC of LED versus binary ASD: LED-PVPVA ASD; for dissolution rate of PVPVA containing plasticizer versus neat PVPVA: PVPVA with 10% w/w plasticizer, no drug; for lag time in the release profile: ATZ-PVPVA ASD at the LoC (20% DL TEC, 25% DL TEAC and TBAC)
Protocol: All dissolution experiments were conducted in 50 mM phosphate buffer pH 6.8 prepared by dissolving 3.52 g of sodium phosphate monobasic monohydrate and 3.48 g of sodium phosphate dibasic anhydrous to 1L with Milli-Q water. The pH was adjusted to pH 6.8 if needed using HCl or NaOH.
Surface normalized dissolution was employed to evaluate the release performance of the ASDs and to calculate the normalized release rate. A Hanson Vision G2 dissolution tester with a Vision heater (Teledyne Hanson Chatsworth, CA) was utilized. A tablet was prepared immediately prior to the dissolution test by compressing 100 mg of ASD in an 8 mm die at 2 500 psi for 60 seconds yielding a tablet surface are of 50 mm^2. The temperature was maintained at 37° C., the rotation speed was 100 rpm, and the dissolution medium was 50 mM phosphate buffer pH 6.8 degassed and pre-equilibrated at 37° C. 100 to 200 μl of sample was withdrawn every 5 min for the initial 20 minutes, then every 10 minutes until 60 minutes and finally at 75, 90 and 120 minutes. The medium was replenished after each sample withdrawal to maintain a constant volume.
The concentration of API and polymer during the dissolution was assessed by high performance liquid chromatography (HPLC) using an Agilent 1100 system (Agilent Technologies, Santa Clara, Calif.). An Ascentis® Express C18 10 cm×3 mm with 2.7 μm particle size column (Sigma-Aldrich St. Louis, Mo.) was employed for separation of ATZ, RTV, and LED. […] For ATZ and LED, the mobile phase was aqueous TFA 0.1% v/v:acetonitrile (ACN) 6:4 v/v at a flow rate of 0.5 ml/min, injection volume 10 detection wavelength (X.) 210 nm, and column temperature 40° C. For RTV, the mobile phase was aqueous TFA 0.1% v/v:ACN 6:4 v/v, flow rate 0.5 ml/min, injection volume 10 detection λ 241 nm and column temperature 40° C.
The surface normalized dissolution rate (R) was calculated based on the mg released versus time profile. The slope from cumulative mg release vs time represents the release rate (k). To normalize, k was divided by the tablet surface area (S, 0.5 cm^2) times the fraction of the component (x) (Equation 1)

[4] = Dynamic vapor sorption (DVS), isothermal water sorption; type: physicochemical; conditions: for effect of plasticizer on polymer (PVPVA) water sorption: PVPVA containing GTB or TBC
Protocol: The isothermal water sorption at 37° C. was measured for selected ASDs using a DVS-Advantage device (Surface Measurement System Ltd Allentown, Pa.). Around 5 mg of sample was first dried at 0% relative humidity (RH) and 37° C. for one hour followed by exposure to 95% RH and 37° C. for at least 8 hours. Percent of water sorbed and derivative of percent mass over time (dm/dT %) was analyzed.

[5] = Glass transition temperature (Tg) by DSC; type: physicochemical; conditions: for Tg of the API: neat API (dry Tg); for reduction of ASD Tg on increasing plasticizer from 5 to 10% w/w: LED 10% DL
Protocol: Glass transition temperature and plasticizer-API miscibility was determined using a TA Q2000 differential scanning calorimeter (DSC) (TA Instruments, New Castle, DE) with a refrigerated cooling accessory (RCS) using N2 as the purge gas at a flow of 50 ml/min. For Tg determination, around 5 mg of sample was accurately weighed into an aluminum pan with a Tzero lid and subject to a cool-heat-cool cycle. Samples were cooled at -20° C. and heated up to 220° C. The heating was done in modulated mode at a heating rate of 2° C/min with a modulation period of +/−1° C. every 60 seconds. The midpoint temperature of the heat capacity change in the thermogram from the second heating cycle scan was taken as the Tg. The DSC was calibrated with indium at the appropriate heating rate.

[6] = 20% DL ATZ ternary ASD, 5% w/w plasticizer, 95% RH/37° C.

## COC(=O)N[C@H](C(=O)N[C@@H](Cc1ccccc1)[C@@H](O)CN(Cc1ccc(-c2ccccn2)cc1)NC(=O)[C@@H](NC(=O)OC)C(C)(C)C)C(C)(C)C [ATZ, atazanavir]
[1]; ATZ:plasticizer 8:1 amorphous mix
  Tg: 105.5 °C
[2]
  limit of congruency (LoC) of PVPVA-based ASD, reported: ~5 % DL

## CC(=O)OCC(CO)OC(C)=O (stereo not shown) [GDA, glycerol diacetate]
[3]
  limit of congruency (LoC) of ATZ-PVPVA ASDs: 7.5 % DL

## CC(=O)OCC(COC(C)=O)OC(C)=O [GTA, Glycerol triacetate]
[3]
  limit of congruency (LoC) of ATZ-PVPVA ASDs: 10 % DL
[3]; 5% w/w plasticizer
  normalized release rate of drug and polymer versus neat PVPVA: faster than that of neat PVPVA

## CCCC(=O)OCC(COC(=O)CCC)OC(=O)CCC [GTB, Glycerol tributyrate]
[4]; [6]
  water uptake versus binary 20% DL ATZ ASD: more prominent increase of water uptake
[4]
  effect of plasticizer on polymer (PVPVA) water sorption: dramatically reduced
[3]; 30% DL, 5% w/w plasticizer
  release from RTV-PVPVA ASD: Complete release
[3]; 35% DL, 5% w/w plasticizer
  release from RTV-PVPVA ASD: not at 35% DL
[3]
  limit of congruency (LoC) of ATZ-PVPVA ASDs: 25 % DL
  limit of congruency (LoC) of LED-PVPVA ASDs: 20 % DL
  dissolution rate of PVPVA containing plasticizer versus neat PVPVA: as much as twice; also recorded: faster dissolution rate
[3]; 5% w/w plasticizer
  increase in LoC of ATZ versus binary ASD: 5 fold
  normalized release rate of drug and polymer versus neat PVPVA: faster than that of neat PVPVA
[3]; 10% w/w plasticizer
  release of LED: complete drug release
  increase in LoC of LED versus binary ASD: 4 fold

## COC(=O)N[C@H](C(=O)N1CC2(CC2)C[C@H]1c1nc(-c2ccc3c(c2)C(F)(F)c2cc(-c4ccc5[nH]c([C@@H]6[C@H]7CC[C@H](C7)N6C(=O)[C@@H](NC(=O)OC)C(C)C)nc5c4)ccc2-3)c[nH]1)C(C)C [LED, ledipasvir]
[1]; LED:plasticizer 8:1 amorphous mix
  Tg: 162 °C
[5]
  Tg of the API: 160 °C
[2]
  limit of congruency (LoC) of PVPVA-based ASD, reported: ~5 % DL

## CC(C)c1nc(CN(C)C(=O)N[C@H](C(=O)N[C@@H](Cc2ccccc2)C[C@H](O)[C@H](Cc2ccccc2)NC(=O)OCc2cncs2)C(C)C)cs1 [RTV, ritonavir, reference compound]
[5]
  Tg of the API: 50 °C
[2]
  limit of congruency (LoC) of PVPVA-based ASD, reported: 25 % DL
[3]; RTV-PVPVA ASD with plasticizers GTB and TBC
  increase in LoC of RTV versus binary ASD: 1.2 fold

## CCCCOC(=O)CC(CC(=O)OCCCC)(OC(C)=O)C(=O)OCCCC [TBAC, Tributyl-o-acetylcitrate]
[3]
  limit of congruency (LoC) of ATZ-PVPVA ASDs: 25 % DL
[3]; 5% w/w plasticizer
  lag time in the release profile: around 20 min

## CCCCOC(=O)CC(O)(CC(=O)OCCCC)C(=O)OCCCC [TBC, Tri-n-butyl citrate]
[4]; [6]
  water uptake versus binary 20% DL ATZ ASD: slight increase in water uptake
[4]; ATZ ternary ASD containing 5% w/w TBC
  water uptake at 10, 20 and 30% DL: similar
[4]
  effect of plasticizer on polymer (PVPVA) water sorption: dramatically reduced
[3]; 30% DL, 5% w/w plasticizer
  release from RTV-PVPVA ASD: Complete release
[3]; 35% DL, 5% w/w plasticizer
  release from RTV-PVPVA ASD: not at 35% DL
[3]
  limit of congruency (LoC) of ATZ-PVPVA ASDs: 25 % DL
  limit of congruency (LoC) of LED-PVPVA ASDs: 15 % DL
  dissolution rate of PVPVA containing plasticizer versus neat PVPVA: as much as twice; also recorded: faster dissolution rate
[3]; 5% w/w plasticizer
  increase in LoC of ATZ versus binary ASD: 5 fold
[3]; 10% w/w plasticizer
  release of LED: complete drug release
  increase in LoC of LED versus binary ASD: 3 fold

## CCOC(=O)CC(CC(=O)OCC)(OC(C)=O)C(=O)OCC [TEAC, triethyl acetyl citrate]
[5]
  reduction of ASD Tg on increasing plasticizer from 5 to 10% w/w: 14 °C
[4]
  water uptake versus binary 20% DL ATZ ASD: slight increase in water uptake
[3]
  limit of congruency (LoC) of ATZ-PVPVA ASDs: 25 % DL
  limit of congruency (LoC) of LED-PVPVA ASDs: 15 % DL
[3]; 5% w/w plasticizer
  lag time in the release profile: around 20 min
  total release of LED: 20%
[3]; 10% w/w plasticizer
  release of LED: complete drug release

## CCOC(=O)CC(O)(CC(=O)OCC)C(=O)OCC [TEC, triethyl citrate]
[5]
  reduction of ASD Tg on increasing plasticizer from 5 to 10% w/w: 10 °C
[4]; [6]
  water uptake versus binary 20% DL ATZ ASD: very similar water uptake as the binary ASD
[3]
  limit of congruency (LoC) of ATZ-PVPVA ASDs: 20 % DL
[3]; 5% w/w plasticizer
  lag time in the release profile: around 20 min
  total release of LED: 12%

## O=C(O)CC(O)(CC(=O)O)C(=O)O [citric acid]
[3]
  limit of congruency (LoC) of ATZ-PVPVA ASDs: 7.5 % DL
[3]; 5% w/w plasticizer
  release of LED: complete release

## OCC(O)CO [glycerol, Glycerol]
[3]
  limit of congruency (LoC) of ATZ-PVPVA ASDs: 7.5 % DL
[3]; 5% w/w plasticizer
  increase in LoC of ATZ versus binary ASD: 1.5 fold

## Clc1ccc(COC(Cn2ccnc2)c2ccc(Cl)cc2Cl)c(Cl)c1 (stereo not shown) [miconazole]
[2]
  limit of congruency (LoC) of PVPVA-based ASD, reported: 25 % DL
